Results taken from patent US20090018162A1, “USE OF 6-(3-CHLORO-2-FLUOROBENZYL)-1-[(2S)-1-HYDROXY-3-METHYLBUTAN-2-YL]-7-METHOXY-4-OXO-1,4-DIHYDROQUINOLINE-3-CARBOXYLIC ACID OR SALT THEREOF FOR TREATING RETROVIRUS INFECTION” (priority 2006, published 2009).
Like-named read-outs stand apart in the source and are kept apart here.

Key:
[1] = system: recombinant HIV-1 clones (patient protease/RT sequences in HIV-1 NL4-3); test: microbe, parasite or virus in culture; assay type: cell-based; conditions: one experiment
[2] = MTS cytotoxicity in monocyte/macrophage cultures; assay type: cell-based; conditions: human, fresh adherent monocyte/macrophage cultures, HIV-infected, macrophages, MTS, read-out: TC50
Description: Anti-HIV Efficacy Evaluation in Fresh Human Monocyte/Macrophage. Monocytes/macrophages were allowed to adhere to the interior 60 wells of a 96 well flat bottomed plate for 2 to 18 hours at 37° C., 5% CO2. Following 6 to 14 days in culture, the monocyte/macrophage cultures were washed 3 times to remove any non-adherent cells and serially diluted test compounds were added followed by the addition of a pre-titered amount of HIV. Cultures were washed a final time by media removal 24 hours post infection, fresh compound added and the cultures continued for an additional six days. […] At assay termination, virus replication was measured by collecting cell-free supernatant samples which were analyzed for HIV p24 antigen content using a commercially available p24 ELISA assay (Coulter). […] MTS staining for PBMC viability to measure cytotoxicity. […] The mitochondrial enzymes of metabolically active cells metabolize MTS to yield a soluble formazan product. This allows the rapid quantitative analysis of cell viability and compound cytotoxicity. […] At termination of the assay, 20 μL of MTS reagent was added per well. The microtiter plates were then incubated 4-6 hrs at 37° C. The incubation intervals were chosen based on empirically determined times for optimal dye reduction. […] Data analysis.

HIV-1 clinical isolates [3] = system: HIV-1 clinical isolates
[4] = system: HIV-1 macrophage-tropic virus strains
HIV-2 CDC 310319 [5] = conditions: HIV-2 CDC 310319 in PBMCs
human PBMCs [6] = conditions: 7 days
HIV-1 clinical isolates [7] = test: microbe, parasite or virus in culture; conditions: Human immunodeficiency virus 1, PBMC
[8] = system: HIV-1 macrophage-tropic virus strains; test: microbe, parasite or virus in culture; conditions: in Homo sapiens
HIV-2 CDC 310319 [9] = test: microbe, parasite or virus in culture; conditions: Human immunodeficiency virus 2, PBMC
[10] = MTS staining for PBMC viability (cytotoxicity); conditions: human
human PBMCs [11] = test: MTS staining for PBMC viability (cytotoxicity); conditions: read-out: TC50, PBMCs, MTS
[12] = system: drug-resistant HIV-1 isolates; test: Anti-HIV efficacy in fresh human PBMCs, drug-resistant HIV-1 isolates; conditions: for IC50: Human immunodeficiency virus 1, PBMC, in Homo sapiens

`COc1cc2c(cc1Cc1cccc(Cl)c1F)c(=O)c(C(=O)O)cn2[C@H](CO)C(C)C` [Compound I, 6-(3-chloro-2-fluorobenzyl)-1-[(2S)-1-hydroxy-3-methylbutan-2-yl]-7-methoxy-4-oxo-1,4-dihydroquinoline-3-carboxylic acid] gave an EC50 ([1]; Human immunodeficiency virus 1, NL43, 120 recombinant clones) of 1.06 nM, an EC50 ([1]; Human immunodeficiency virus 1, NL43, Reference clone (NL4-3), ten replicates) of 1.11 nM and a CC50 at 7 days ([2]; ADA assay) greater than 500 nM. The CC50 at 7 days ([2]; Ba-L assay) was greater than 500 nM, the CC50 at 7 days ([2]; JR-CSF assay) was greater than 100 nM and the “TI (TC50/IC50)” value (HIV-1 clinical isolates [3]; HIV-1 96USHIPS7 in PBMCs) was greater than 384.6. The “TI (TC50/IC50)” value (HIV-1 clinical isolates [3]; HIV-1 BFC01 in PBMCs) was greater than 85.5, the “TI (TC50/IC50)” value (HIV-1 clinical isolates [3]; HIV-1 BR/92/021 in PBMCs) was greater than 131.6 and the “TI (TC50/IC50)” value (HIV-1 clinical isolates [3]; HIV-1 BR/92/025 in PBMCs) was greater than 1000.0. The “TI (TC50/IC50)” value (HIV-1 clinical isolates [3]; HIV-1 BR/93/017 in PBMCs) was greater than 555.6, the “TI (TC50/IC50)” value (HIV-1 clinical isolates [3]; HIV-1 BR/93/020 in PBMCs) was greater than 135.1 and the “TI (TC50/IC50)” value (HIV-1 clinical isolates [3]; HIV-1 BR/93/022 in PBMCs) was greater than 88.5. For the same compound, the “TI (TC50/IC50)” value (HIV-1 clinical isolates [3]; HIV-1 CMU 02 in PBMCs) was greater than 79.4, the “TI (TC50/IC50)” value (HIV-1 clinical isolates [3]; HIV-1 JV 1083 in PBMCs) was greater than 285.7 and the “TI (TC50/IC50)” value (HIV-1 clinical isolates [3]; HIV-1 RW/92/016 in PBMCs) was greater than 243.9. For the same compound, the “TI (TC50/IC50)” value (HIV-1 clinical isolates [3]; HIV-1 UG/92/046 in PBMCs) was greater than 200.0, the “TI (TC50/IC50)” value ([4]; HIV-1 ADA in macrophages) was greater than 7142.9 and the “TI (TC50/IC50)” value ([4]; HIV-1 Ba-L in macrophages) was greater than 746.3. The “TI (TC50/IC50)” value ([4]; HIV-1 JR-CSF in macrophages) was greater than 322.6, the “TI (TC50/IC50)” value (HIV-2 CDC 310319 [5]) was greater than 188.7 and the CC50 (human PBMCs [6]) was greater than 100 nM. The IC50 (HIV-1 clinical isolates [7]; HIV-1 96USHIPS7 (subtype /B, R5) in PBMCs) was 0.26 nM, the IC50 (HIV-1 clinical isolates [7]; HIV-1 BR/92/021 (subtype B/B, R5) in PBMCs) was 0.76 nM and the IC50 (HIV-1 clinical isolates [7]; HIV-1 BR/93/020 (subtype F/F, R5/X4) in PBMCs) was 0.74 nM. It also gave an IC50 (HIV-1 clinical isolates [7]; HIV-1 CMU 02 (subtype /EA, X4) in PBMCs) of 1.26 nM, an IC50 (HIV-1 clinical isolates [7]; HIV-1 JV 1083 (subtype /G, R5) in PBMCs) of 0.35 nM and an IC50 (HIV-1 clinical isolates [7]; HIV-1 RW/92/016 (subtype A/A, R5) in PBMCs) of 0.41 nM. For the same compound, the IC50 (HIV-1 clinical isolates [7]; HIV-1 UG/92/046 (subtype D/D, X4) in PBMCs) was 0.5 nM, the IC50 ([8]; Human immunodeficiency virus 1, BAL, Macrophage, HIV-1 Ba-L in macrophages) was 0.67 nM and the IC50 ([8]; Human immunodeficiency virus 1, Macrophage, HIV-1 ADA in macrophages) was 0.07 nM. For the same compound, the IC50 ([8]; Human immunodeficiency virus 1, Macrophage, HIV-1 JR-CSF in macrophages) was 0.31 nM, the IC50 (HIV-2 CDC 310319 [9]) was 0.53 nM and the CC50 at 7 days [10] was greater than 100 nM. For the same compound, the CC50 (human PBMCs [11]; 52-52 assay) was greater than 100 nM, the CC50 (human PBMCs [11]; 96USHIPS7 assay) was greater than 100 nM and the CC50 (human PBMCs [11]; 144-44 assay) was greater than 100 nM. For the same compound, the CC50 (human PBMCs [11]; 1002-60 assay) was greater than 100 nM, the CC50 (human PBMCs [11]; 1064-52 assay) was greater than 100 nM and the CC50 (human PBMCs [11]; BFC01 assay) was greater than 100 nM. The CC50 (human PBMCs [11]; BR/92/025 assay) was greater than 100 nM, the CC50 (human PBMCs [11]; BR/93/017 assay) was greater than 100 nM and the CC50 (human PBMCs [11]; BR/93/020 assay) was greater than 100 nM. It also gave a CC50 (human PBMCs [11]; BR/93/022 assay) greater than 100 nM, a CC50 (human PBMCs [11]; CMU 02 assay) greater than 100 nM and a CC50 (human PBMCs [11]; HIV-2 CDC 310319 assay) greater than 100 nM. The CC50 (human PBMCs [11]; JV 1083 assay) was greater than 100 nM, the CC50 (human PBMCs [11]; RW/92/016 assay) was greater than 100 nM and the CC50 (human PBMCs [11]; UG/92/046 assay) was greater than 100 nM. The “TI (TC50/IC50)” value ([12]; HIV-1 52-52 in PBMCs) was greater than 588.2, the “TI (TC50/IC50)” value ([12]; HIV-1 144-44 in PBMCs) was greater than 138.89 and the “TI (TC50/IC50)” value ([12]; HIV-1 1002-60 in PBMCs) was greater than 769.2. The “TI (TC50/IC50)” value ([12]; HIV-1 1064-52 in PBMCs) was greater than 158.7, the “TI (TC50/IC50)” value ([12]; HIV-1 MDR 769 in PBMCs) was greater than 555.6 and the “TI (TC50/IC50)” value ([12]; HIV-1 MDR 807 in PBMCs) was greater than 88.5. For the same compound, the “TI (TC50/IC50)” value ([12]; HIV-1 MDR 1385 in PBMCs) was greater than 5000.0, the “TI (TC50/IC50)” value ([12]; HIV-1 MDR 3761 in PBMCs) was greater than 137.0 and the IC50 ([12]; HIV-1 52-52 (protease-inhibitor resistant) in PBMCs) was 0.17 nM. It also gave an IC50 ([12]; against several viruses (e.g., MDR 1385, MDR 3761) in PBMCs) of less than 1 nM, an IC50 ([12]; multi-drug-resistant HIV-1 MDR 769 in PBMCs) of 0.18 nM and an IC50 ([12]; multi-drug-resistant HIV-1 MDR 807 in PBMCs) of 1.13 nM. The IC50 ([12]; multi-drug-resistant HIV-1 MDR 1385 in PBMCs) was 0.02 nM and the IC50 ([12]; multi-drug-resistant HIV-1 MDR 3761 in PBMCs) was 0.73 nM.
